From article PMC6435570, “Zafirlukast Is a Dual Modulator of Human Soluble Epoxide Hydrolase and Peroxisome Proliferator-Activated Receptor γ” (Frontiers in Pharmacology, 2019)
pIC50: −log10 of the molar value. Several values for one entry are separate records, joined by “and”; a condition that tells them apart may be missing. Equal entries are not always repeated. Entries after “also recorded” stand apart in the source; their conditions may differ.

What was measured:
[1] = biological target: T1, human PPARδ ligand binding domain (Homo sapiens, UniProt Q03181); assay: PPAR reporter gene assay (Gal4 hybrid, PPARδ); assay type: cell-based; conditions: HEK-293T, reference L165,041 1 μM, tested up to 10 μM
T1 construct: expressed in transfected cells; host or cells: HEK-293T
T1 sequence (Q03181 211-439 limits assumed): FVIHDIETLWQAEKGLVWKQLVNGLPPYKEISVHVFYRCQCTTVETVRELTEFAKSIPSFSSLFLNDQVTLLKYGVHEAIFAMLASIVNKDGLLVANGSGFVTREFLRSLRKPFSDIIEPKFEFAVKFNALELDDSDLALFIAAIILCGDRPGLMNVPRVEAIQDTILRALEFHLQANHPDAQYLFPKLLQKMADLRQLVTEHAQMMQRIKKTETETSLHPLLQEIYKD
Experimental: HEK-293T cells were seeded in 96-well plates (2.5 × 10^4 cells/well) and were allowed to adhere overnight. Before transfection, medium was changed to Opti-MEM without supplements. Transient plasmid transfection was carried out using Lipofectamine LTX reagent (Invitrogen, Carlsbad, CA, United States) according to the manufacturer’s protocol with pFR-Luc (Stratagene, La Jolla, CA, United States), pRL-SV40 (Promega, Fitchburg, MA, United States) and pFA-CMV-PPAR-LBD ([Rau et al., 2006]). 5 h after transfection, medium was changed to Opti-MEM supplemented with penicillin (100 U/mL) and streptomycin (100 μg/mL), now additionally containing 0.1% DMSO and the respective test compound or 0.1% DMSO alone as untreated control. Each concentration was tested in triplicates and each experiment was repeated independently at least four times. Following overnight (12–16 h) incubation with the test compounds, cells were assayed for luciferase activity using the Dual-Glo^TM Luciferase Assay System (Promega, Fitchburg, MA, United States) according to the manufacturer’s protocol. Luminescence was measured with an Infinite M200 luminometer (Tecan Group Ltd., Männedorf, Switzerland). Normalization of transfection efficiency and cell growth was done by division of firefly luciferase data by renilla luciferase data and multiplying the value by 1000 resulting in relative light units (RLU). Fold activation was obtained by dividing the mean RLU of a test compound at a respective concentration by the mean RLU of untreated control. Relative activation was obtained by dividing the fold activation of a test compound at a respective concentration by the fold activation of the respective PPARα, γ or δ full agonist GW-7647, pioglitazone or L165,041 at 1 μM. EC50 and standard deviation were calculated with the mean relative activation values of at least four independent experiments by SigmaPlot 10.0 (Systat Software GmbH, Erkrath, Germany) using a four parameter logistic regression. […]

sEH (HEP-G2) = biological target: T2, sEH (HEP-G2) (Homo sapiens, UniProt P34913); assay: sEH activity in HEP-G2 cell lysates (14(15)-EET-d11 to DHET-d11, LC-MS/MS); assay type: biochemical; conditions: HEP-G2 cell homogenate, (±)14(15)-EET-d11 substrate, DHET formation by LC-MS/MS
T2 construct: 1 μg of total cell homogenate diluted in 100 μl of PBS; endogenous in cells; host or cells: HEP-G2
T2 sequence (P34913 1-555): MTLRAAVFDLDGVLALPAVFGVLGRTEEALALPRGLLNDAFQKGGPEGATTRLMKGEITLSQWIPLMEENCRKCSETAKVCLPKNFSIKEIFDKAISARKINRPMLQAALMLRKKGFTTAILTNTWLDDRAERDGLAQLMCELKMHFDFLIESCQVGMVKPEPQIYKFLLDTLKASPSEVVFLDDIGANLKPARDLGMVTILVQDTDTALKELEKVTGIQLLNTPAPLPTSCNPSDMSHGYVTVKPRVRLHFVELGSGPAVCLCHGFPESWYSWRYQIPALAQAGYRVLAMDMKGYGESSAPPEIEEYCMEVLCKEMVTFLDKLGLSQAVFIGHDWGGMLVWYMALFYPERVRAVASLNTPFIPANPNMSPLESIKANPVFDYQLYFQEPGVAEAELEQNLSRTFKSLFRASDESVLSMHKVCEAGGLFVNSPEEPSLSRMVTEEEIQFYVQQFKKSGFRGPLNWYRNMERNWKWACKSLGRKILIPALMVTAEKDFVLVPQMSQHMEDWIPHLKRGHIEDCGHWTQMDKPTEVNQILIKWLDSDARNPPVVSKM
Experimental: Quantification of cellular sEH metabolic activity was performed as described by [Zha et al. (2014)]. For this, HEP-G2 cells were harvested, washed twice with PBS and sonicated in PBS for disruption of cell integrity. Then, 1 μg of total cell homogenate diluted in 100 μl of PBS containing 0.1 mg/ml BSA was incubated with the compounds or vehicle for 15 min at 37°C. After this, 25 ng (±)14(15)-EET-d11 (Cayman Chemical, Ann Arbor, MI, United States) were added per sample and the incubation was continued for additional 10 min at 37°C. A blank was performed using PBS (containing 0,1 mg/mL BSA). The reactions were stopped by adding 100 μL of ice cold methanol. After centrifugation (2000 rpm, 4°C, 5 min), supernatants were analyzed by LC-MS/MS and the amounts of (±)14(15)-EET-d11 and the corresponding (±)14(15)-DHET-d11 were determined.
14(15)-EET-d11 and 14(15)-DHET-d11 content of the extracted samples were analyzed employing liquid chromatography tandem mass spectroscopy (LC-MS/MS). The LC/MS-MS system comprised an API 5500 QTrap (Sciex, Darmstadt, Germany), equipped with a Turbo-V-source operating in negative ESI mode, an Agilent 1200 binary HPLC pump and degasser (Agilent, Waldbronn, Germany) and an HTC Pal autosampler (Chromtech, Idstein, Germany) fitted with a 25 μL LEAP syringe (Axel Semrau GmbH, Sprockhövel, Germany). High purity nitrogen for the mass spectrometer was produced by a NGM 22-LC/MS nitrogen generator (cmc Instruments, Eschborn, Germany). All substances were obtained from Cayman Chemical, Ann Arbor, MI, United States. Stock solutions with 2,500 ng/mL of both analytes were prepared in methanol. Working standards were obtained by further dilution with a concentration range of 0.1–250 ng/mL for 14(15)-EET-d11 and 14(15)-DHET-d11. Sample extraction was performed with liquid–liquid-extraction. Therefore, 150 μL of matrix homogenates were gently mixed with 20 μL of internal standard [14(15)-EET and 14(15)-DHET all with a concentration of 100 ng/ml in methanol], and were extracted twice with 600 μL of ethyl acetate. Samples for standard curve and quality control were prepared similarly, instead of 150 μL of matrix homogenates, 150 μL PBS were added. Further 20 μL methanol, 20 μL working standard and 20 μL internal standard were added. The organic phase was removed at a temperature of 45°C under a gentle stream of nitrogen. The residues were reconstituted with 50 μL of methanol/water/(50:50, v/v), centrifuged for 2 min at 10,000 g and then transferred to glass vials (Macherey-Nagel, Düren, Germany) prior to injection into the LC-MS/MS system. For the chromatographic separation a Gemini NX C18 column and pre-column were used (150 mm × 2 mm i.d., 5 μm particle size and 110 Å pore size from Phenomenex, Aschaffenburg, Germany). A linear gradient was employed at a flow rate of 0.5 mL/min mobile phase with a total run time of 17.5 min. Mobile phase was A water/ammonia (100:0.05, v/v) and B acetonitrile/ammonia (100:0.05, v/v). The gradient started from 85% A to 10% within 12 min. This was held for 1 min at 10% A. Within 0.5 min the mobile phase shifted back to 85% A and was held for 3.5 min to equilibrate the column for the next sample. The injection volume of samples was 20 μL. Quantification was performed with Analyst Software V 1.5.1 (Sciex, Darmstadt, Germany) employing the internal standard method (isotope- dilution mass spectrometry). Ratios of analyte peak area and internal standard area (y-axis) were plotted against concentration (x-axis) and calibration curves were calculated by least square regression with 1/concentration^2 weighting.

3T3-L1 cells [2] = assay: 3T3-L1 adipocyte differentiation, Oil Red O lipid accumulation; assay type: cell-based, murine; conditions: differentiation cocktail plus zafirlukast or montelukast 1, 5, 10 μM or rosiglitazone 2 μM; 14 days
Experimental: 3T3-L1 cells were differentiated into adipocytes for 14 days according to the protocol of [Zebisch et al. (2012)]. For this, cells were seeded in 6-well plates ([…]) and differentiation was induced after 48 h by addition of a differentiation cocktail containing 1 μg/mL insulin, 0.25 μM dexamethasone and 0.5 mM isobutylmethylxanthine (IBMX) in DMEM supplemented with 10% FCS and 1% PS. […] After 2 days, medium was replaced by DMEM supplemented with 10% FCS, 1% PS and 1 μg/mL insulin for 2 more days. Afterwards, cells were kept for lipid droplet accumulation in DMEM containing 10% FCS and 1% PS until day 15. Media were replaced every other day.
Differentiated 3T3-L1 cells were washed with PBS and subsequently fixed for 60 min with formaldehyde (4% in PBS). Afterwards, cells were thoroughly rinsed with 60% isopropanol and incubated with Oil Red O solution (0.3% in 60% isopropanol) for 120 min. This was followed by the removal of the staining solution and thorough rinsing of the cell layer with ultrapure water. Finally, the plates were dried and pictures of the stained cell layers were taken.
For quantification of the accumulated dye, 3T3-L1 cells were seeded in 24-well plates (0.55 × 10^5/well) instead of 6-wells and the differentiation was carried out as described in the section ‘Adipocyte differentiation’. After 14 days of differentiation, cells were fixed and stained as described above. […] 100 μl of dye extract were transferred to a 96-well plate and absorbance was measured (λabs = 510 nm) by an Infinite F200 plate reader (Tecan Group Ltd., Männedorf, Switzerland). […]
As master regulator of adipocyte differentiation in men and mice, PPARγ plays a crucial role in the cell’s commitment to the adipocyte lineage by controlling important functions such as intracellular biosynthesis, transport and accumulation of lipids. […] Upon differentiation, different parameters such as lipid accumulation and PPARγ target gene expression can be assessed to investigate the PPARγ activating potential of the compounds of interest. […]

3T3-L1 cells [3] = assay: WST-1 assay (mitochondrial activity) in differentiating 3T3-L1 cells; assay type: cell-based, murine; conditions: 48 h with differentiation cocktail
Experimental: For measurement of cell proliferation, 3T3-L1 cells were seeded in 24-well plates (0.55 × 10^5/well) instead of 6-wells and the differentiation was carried out as described in the section ‘Adipocyte differentiation’. After 2 days of incubation with the differentiation cocktail with or without the PPARγ agonists, WST-1 reagent (Roche Diagnostic GmbH, Mannheim, Germany) was added (1:10) to the supernatant of the differentiating cells. Then, the cells were further incubated for 2 h at 37°C, 5% CO2 to allow color development. After this, cell supernatant absorbance was measured (λabs = 450 nm) and corrected to a reference wavelength (λabs = 690 nm) with an Infinite F200 plate reader (Tecan Group Ltd., Männedorf, Switzerland). After this, background absorbance was subtracted from all measurements and values were normalized to the differentiated control receiving the differentiation cocktail without addition of a PPARγ agonist (w/o).
In addition to lipid accumulation, mitochondrial activity of 3T3-L1 cells during differentiation was investigated by the turnover of the tetrazolium salt WST-1 into a formazan dye. This provides not only further information on the metabolic capacity of the cells after differentiation but can also indicate toxicity of compounds. For this, 3T3-L1 cells were treated with the differentiation cocktail in the presence or absence of PPARγ agonists for 48 h. After this, WST-1 turnover as a measure for mitochondrial activity was assessed (Figure 2C).

| PPARδ EC50 [1] | pIC50 (sEH (HEP-G2)) | Compound | Lipid accumulation (Oil Red O staining) (3T3-L1 cells [2]) | WST-1 turnover (mitochondrial activity) versus w/o control (3T3-L1 cells [3]; 10 μM) | WST-1 turnover (mitochondrial activity) versus w/o control (3T3-L1 cells [3]; 1 μM) | WST-1 turnover (mitochondrial activity) versus w/o control (3T3-L1 cells [3]; 5 and 10 μM) |
| --- | --- | --- | --- | --- | --- | --- |
| i.a. @ 10 μM | 5.72 and 5.71 | CC(C)(O)c1ccccc1CC[C@@H](SCC1(CC(=O)O)CC1)c1cccc(/C=C/c2ccc3ccc(Cl)cc3n2)c1 [Montelukast, montelukast] | did not trigger any lipid accumulation; also recorded: did not induce cell lipid accumulation | over threefold |  |  |
| i.a. @ 10 μM | 6.10 and 6.09 | COc1cc(C(=O)NS(=O)(=O)c2ccccc2C)ccc1Cc1cn(C)c2ccc(NC(=O)OC3CCCC3)cc12 [Zafirlukast, zafirlukast] | induced lipid accumulation in a dose-dependent manner, but to a lesser extend compared to rosiglitazone |  | threefold | comparable to the w/o control; also recorded: had no influence on mitochondrial activity |
